Source: patent US11986532B2 (Arvinas Operations, Inc., priority 2021, dated 2024)
Where two headings read alike, the source gives them in different places.

Biological target: T1, BCL6 (Homo sapiens, UniProt P41182)
T1 construct: endogenous in cells; host or cells: T47D breast cancer epithelial cells
Experiment: Immunofluorescence protocol for high content imaging of BCL6 (degradation) in T47D cells, 3 days compound treatment
Assay type: cell-based
Details: for Dmax: read-out: Mean Dmax (%)** category; for DC50: read-out: Mean DC50 (nM)* category
How it was run: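 Remaining BCL6 in breast cancer T47D cells was measured by high-content immunofluorescence imaging after 3 days of treatment with serially diluted compound (top 0.1 or 1 μM). Nuclei were stained with Hoechst and cells with CellMask.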

[1] = T47D cells, 3 days compound treatment

SMILES | Dmax (T47D) | DC50 | DC50 [1] | Dmax [1]
CNC(=O)COc1cc2cc(Nc3nc(N4CCN(C[C@H]5C[C@H](N6CCN(c7ccc8c(c7)CN(C7CCC(=O)NC7=O)C8=O)CC6)C5)CC4)ncc3Cl)ccc2n(C(C)C)c1=O (stereo partly drawn) [Compound 342, 2-[(6-{[5-chloro-2-(4-{[(1r,3r)-3-{4-[2-(2,6-dioxopiperidin-3-yl)-1-oxo-2,3-dihydro-1H-isoindol-5-yl]piperazin-1-yl}cyclobutyl]methyl}piperazin-1-yl)pyrimidin-4-yl]amino}-2-oxo-1-(propan-2-yl)-1,2-dihydroquinolin-3-yl)oxy]-N-methylacetamide] | ≥ 70% | < 10 nM |  | 
CNC(=O)COc1cc2cc(Nc3nc(N4CCC(CN5CCC6(CC5)CN(c5cccc7c5C(=O)N(C5CCC(=O)NC5=O)C7=O)C6(C)C)CC4)ncc3Cl)ccc2n(C(C)C)c1=O (stereo not drawn) [Compound 337, 2-{[6-({5-chloro-2-[4-({2-[2-(2,6-dioxopiperidin-3-yl)-1,3-dioxo-2,3-dihydro-1H-isoindol-4-yl]-1,1-dimethyl-2,7-diazaspiro[3.5]nonan-7-yl}methyl)piperidin-1-yl]pyrimidin-4-yl}amino)-2-oxo-1-(propan-2-yl)-1,2-dihydroquinolin-3-yl]oxy}-N-methylacetamide] | 50 to 70% | < 10 nM |  | 
CNC(=O)COc1cc2cc(Nc3nc(N4CCC(O[C@H]5C[C@H](N6CCC7(CC6)CN(c6ccc8c(c6)C(=O)N(C6CCC(=O)NC6=O)C8=O)C7)C5)CC4)ncc3Cl)ccc2n(C(C)C)c1=O (stereo partly drawn) [Compound 357, 2-({6-[(5-chloro-2-{4-[(1r,3r)-3-{2-[2-(2,6-dioxopiperidin-3-yl)-1,3-dioxo-2,3-dihydro-1H-isoindol-5-yl]-2,7-diazaspiro [3.5]nonan-7-yl}cyclobutoxy]piperidin-1-yl}pyrimidin-4-yl)amino]-2-oxo-1-(propan-2-yl)-1,2-dihydroquinolin-3-yl}oxy)-N-methylacetamide] | ≥ 70% | < 10 nM |  | 
CNC(=O)COc1cc2c(F)c(Nc3nc(N4CCC(O[C@H]5C[C@H](N6CCC(c7ccc8c(c7C)C(=O)N(C7CCC(=O)NC7=O)C8=O)CC6)C5)CC4)ncc3Cl)ccc2n(C(C)C)c1=O (stereo partly drawn) [Compound 419, 2-({6-[(5-chloro-2-{4-[(1r,3r)-3-{4-[2-(2,6-dioxopiperidin-3-yl)-4-methyl-1,3-dioxo-2,3-dihydro-1H-isoindol-5-yl]piperidin-1-yl}cyclobutoxy]piperidin-1-yl}pyrimidin-4-yl)amino]-5-fluoro-2-oxo-1-(propan-2-yl)-1,2-dihydroquinolin-3-yl}oxy)-N-methylacetamide] | ≥ 70% | < 10 nM |  | 
CNC(=O)COc1cc2cc(Nc3nc(N4CCC(CN5CCC6(CC(=O)N(c7ccc8c(c7)CN(C7CCC(=O)NC7=O)C8=O)C6)C5)CC4)ncc3Cl)ccc2n(C(C)C)c1=O (stereo not drawn) [Compound 39, 2-{[6-({5-chloro-2-[4-({7-[2-(2,6-dioxopiperidin-3-yl)-1-oxo-2,3-dihydro-1H-isoindol-5-yl]-8-oxo-2,7-diazaspiro[4.4]nonan-2-yl}methyl)piperidin-1-yl]pyrimidin-4-yl}amino)-2-oxo-1-(propan-2-yl)-1,2-dihydroquinolin-3-yl]oxy}-N-methylacetamide] |  |  | < 10 nM | 50 to 70%
CNC(=O)COc1cc2cc(Nc3nc(N4CCC(O[C@H]5C[C@H](N6CC=C(c7ccc8c(c7Cl)CN(C7CCC(=O)NC7=O)C8=O)CC6)C5)CC4)ncc3Cl)ccc2n(C(C)C)c1=O (stereo partly drawn) [Compound 429, 2-({6-[(5-chloro-2-{4-[(1r,3r)-3-{4-[4-chloro-2-(2,6-dioxopiperidin-3-yl)-1-oxo-2,3-dihydro-1H-isoindol-5-yl]-1,2,3,6-tetrahydropyridin-1-yl}cyclobutoxy]piperidin-1-yl}pyrimidin-4-yl)amino]-2-oxo-1-(propan-2-yl)-1,2-dihydroquinolin-3-yl}oxy)-N-methylacetamide] | ≥ 70% | < 10 nM |  | 
